Data taken from ChEMBL document CHEMBL1127438, “Substituted (S)-phenylpiperidines and rigid congeners as preferential dopamine autoreceptor antagonists: synthesis and structure-activity relationships” (J Med Chem, 1994).
pKi: −log10 of the molar value.

Columns and labels:
Rattus norvegicus [1] = organism: Rattus norvegicus; assay: Compound is tested for concomitant ability to antagonize the locomotor activity induced by Di-Pr-5,6-ADTN; format: functional
Rattus norvegicus [2] = assay: Compound is tested for its ability to displace (Di-Pr-5,6-ADTN) at […] of subcutaneous dose from rat striatal binding sites in vivo; format: functional
Rattus norvegicus [3] = assay: Effect (60 min after administration of 200 (micro mol/kg) subcuteneous dose on DA release in brain dialysis model of rat striatum; format: functional
Rattus norvegicus [4] = assay: Evaluated for DOPA accumulation in nonhabituated rats at 100 umol/kg of subcuteneous dose in rat striatum; format: functional
Rattus norvegicus [5] = assay: Compound is tested for its ability to displace Di-Pr-5,6-ADTN at […] subcutaneous dose from rat striatal binding sites in vivo; format: functional
D(3) dopamine receptor [6] = molecular target: T1, D(3) dopamine receptor (Homo sapiens, UniProt P35462); assay: Tested for in vitro binding affinity against cloned mammalian dopamine autoreceptor (DA) receptors expressed in CHO-K1 cells [3H]-spiperone as radioligand; format: cell-based
T1 sequence (P35462 whole entry): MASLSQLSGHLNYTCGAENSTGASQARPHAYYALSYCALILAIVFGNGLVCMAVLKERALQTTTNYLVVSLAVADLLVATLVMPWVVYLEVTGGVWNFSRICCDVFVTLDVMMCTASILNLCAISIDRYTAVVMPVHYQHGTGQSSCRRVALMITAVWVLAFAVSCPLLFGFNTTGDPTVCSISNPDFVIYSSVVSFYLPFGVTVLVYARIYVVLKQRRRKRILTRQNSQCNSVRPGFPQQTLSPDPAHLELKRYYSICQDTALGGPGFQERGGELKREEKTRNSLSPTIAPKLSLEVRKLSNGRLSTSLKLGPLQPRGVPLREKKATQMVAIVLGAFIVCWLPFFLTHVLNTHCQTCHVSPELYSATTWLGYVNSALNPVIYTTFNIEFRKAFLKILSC

Rattus norvegicus [7] = assay: Evaluated for biochemical levels of DOPAC in nonpretreated habituated rats for subcuteneous dose of 100 micro mol/kg in rat striatum; format: functional
D(2) dopamine receptor [8] = molecular target: T2, D(2) dopamine receptor (Homo sapiens, UniProt P14416); assay: biochemical
T2 sequence (P14416 whole entry): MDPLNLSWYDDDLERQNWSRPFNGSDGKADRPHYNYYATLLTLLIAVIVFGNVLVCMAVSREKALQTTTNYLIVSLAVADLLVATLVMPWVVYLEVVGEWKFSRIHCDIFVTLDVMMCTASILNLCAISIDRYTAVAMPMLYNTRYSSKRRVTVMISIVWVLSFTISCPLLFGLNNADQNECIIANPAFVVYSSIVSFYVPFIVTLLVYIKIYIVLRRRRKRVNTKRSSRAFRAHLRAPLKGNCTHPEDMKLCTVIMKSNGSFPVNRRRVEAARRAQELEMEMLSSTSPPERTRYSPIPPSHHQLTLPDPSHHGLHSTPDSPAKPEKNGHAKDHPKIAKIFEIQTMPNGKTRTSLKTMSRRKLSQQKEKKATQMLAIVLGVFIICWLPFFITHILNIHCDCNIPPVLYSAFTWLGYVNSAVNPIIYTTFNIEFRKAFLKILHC
Description: Affinity against recombinant dopamine receptor (DA) D2 expressed in CHO-K1 cells, using [3H]-spiperone as radioligand

Rattus norvegicus [9] = assay: Compound is evaluated for DOPA accumulation in reserpine-pretreated habituated rats at 100 umol/kg of subcuteneous dose in rat striatum; format: functional
Dopamine receptor = assay: Tested for in vitro binding affinity against cloned mammalian dopamine autoreceptor (DA) receptors expressed in CHO-K1 cells using [3H]U-86170 as radioligand; format: cell-based
D(2) dopamine receptor [10] = molecular target: T3, D(2) dopamine receptor (Rattus norvegicus, UniProt P61169); assay: Tested for affinity against striatal dopamine autoreceptor (DA) D2 receptors using [3H]spiperone as radioligand in rats.
T3 sequence (P61169 whole entry): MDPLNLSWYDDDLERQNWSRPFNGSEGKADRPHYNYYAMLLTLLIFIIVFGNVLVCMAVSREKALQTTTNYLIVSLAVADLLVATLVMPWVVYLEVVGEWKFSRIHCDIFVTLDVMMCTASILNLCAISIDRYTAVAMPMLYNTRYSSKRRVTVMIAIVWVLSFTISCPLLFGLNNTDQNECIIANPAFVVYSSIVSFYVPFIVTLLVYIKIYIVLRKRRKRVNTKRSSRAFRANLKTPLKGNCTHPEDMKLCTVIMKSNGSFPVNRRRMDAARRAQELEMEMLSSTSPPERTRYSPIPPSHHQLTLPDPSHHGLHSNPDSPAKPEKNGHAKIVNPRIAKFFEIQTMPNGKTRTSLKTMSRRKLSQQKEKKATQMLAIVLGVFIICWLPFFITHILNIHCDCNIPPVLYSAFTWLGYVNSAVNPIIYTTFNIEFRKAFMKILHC

D(2) dopamine receptor [11] = molecular target: T3, D(2) dopamine receptor; assay: Tested for affinity against cloned mammalian dopamine autoreceptor (DA) D2 receptors expressed in CHO-K1 cells using [3H]spiperone as radioligand; format: cell-based
Rattus norvegicus [12] = assay: Effect (60 min after administration of 200 (micro mol/kg) subcuteneous dose on DA release in brain dialysis model of rat; format: functional
Rattus norvegicus [13] = assay: Evaluated for locomotor activity in nonpretreated habituated rats in 100 umol/kg of subcuteneous dose; format: functional; design: unit not given here
Rattus norvegicus [14] = assay: Compound is evaluated for DOPA accumulation in reserpine-pretreated habituated rats at 100 micro mol/kg of subcuteneous dose in rat striatum; format: functional
Rattus norvegicus [15] = assay: Compound is evaluated for DOPA accumulation in nonpretreated habituated rats for subcuteneous dose of 100 micro mol/kg in rat striatum; format: functional
Rattus norvegicus [16] = assay: Compound is evaluated for DOPAC level in nonpretreated habituated rats after subcuteneous dose (100 micro mol/kg) in rat striatum; value expressed as percent of saline controls; format: functional
Rattus norvegicus [17] = assay: Evaluated biochemically in nonpretreated habituated rats for (100 uM/kg) subcuteneous dose, Value expressed as locomotor activity (LMA); format: functional
D(2) dopamine receptor [18] = molecular target: T2, D(2) dopamine receptor; assay: biochemical; remark: listed apart in the source
Description: In vitro binding affinity against cloned mammalian dopamine D2 autoreceptor, expressed in CHO-K1 cells, using [3H]U-86170 as radioligand

D(2) dopamine receptor [19] = molecular target: T3, D(2) dopamine receptor
Description: Affinity against striatal dopamine D2 receptors using [3H]spiperone as radioligand in rats.

Rattus norvegicus [20] = assay: Tested in vivo for its ability to displace DA receptor agonist (Di-Pr-5,6-ADTN) from rat striatal binding sites at 0.25 uM/Kg sc. dose (after subtraction of cerebellum levels); format: functional
D(3) dopamine receptor [21] = molecular target: T1, D(3) dopamine receptor; assay: Tested for in vitro binding affinity against cloned mammalian dopamine D3 receptor, expressed in CHO-K1 cells, using [3H]spiperone as radioligand; format: cell-based
Rattus norvegicus [22] = assay: Evaluated for DOPAC level in nonpretreated habituated rats after subcuteneous dose of 100 micro mol/kg in rat striatum; format: functional
Rattus norvegicus [23] = assay: Evaluated biochemically in reserpine-pretreated habituated rats for (100 umol/kg) subcuteneous dose, Value expressed as locomotor activity (LMA); format: functional
Rattus norvegicus [24] = assay: Evaluated biochemically in nonhabituated rats for (100 umol/kg) subcuteneous dose, Value expressed as locomotor activity (LMA); format: functional
Rattus norvegicus [25] = assay: Evaluated biochemically in reserpine-pretreated habituated rats for (100 umol/kg) subcuteneous dose in rat striatum (DOPAacc), Value expressed as counts/30 min; format: functional
Rattus norvegicus [26] = assay: Effect of (60 min after administration of 200 (uM/kg) subcuteneous dose on DA release in brain dialysis model of rat striatum; Values expressed as percent of saline controls; format: functional
Rattus norvegicus [27] = organism: Rattus norvegicus; assay: Tested in vio for concomitant ability to antagonize the locomotor activity of rat induced by Di-Pr-5,6-ADTN, Value expressed as locomotor activity (LMA), % of control; format: functional; design: scale not given: the % may be the effect or the level left
Rattus norvegicus [28] = organism: Rattus norvegicus; assay: Compound was tested in vio for concomitant ability to antagonize the locomotor activity of rat induced by Di-Pr-5,6-ADTN, Value expressed as locomotor activity (LMA), % of control; format: functional; design: scale not given: the % may be the effect or the level left
Rattus norvegicus [29] = assay: Evaluated for locomotor activity in nonpretreated habituated rats at 100 umol/kg of subcuteneous dose; format: functional; design: unit not given here
Rattus norvegicus [30] = assay: Compound is evaluated for locomotor activity in reserpine-pretreated habituated rats for (100 umol/kg) subcuteneous dose; format: functional
Rattus norvegicus [31] = assay: Compound is evaluated for biochemical levels of DOPAC in nonpretreated habituated rats for subcuteneous dose of 100 umol/kg in rat striatum; format: functional
Rattus norvegicus [32] = assay: Compound is evaluated for locomotor activity in reserpine-pretreated habituated rats at 100 micro mol/kg of subcuteneous dose; format: functional

Structure (SMILES) | pKi (D(3) dopamine receptor [6]) | Activity (Rattus norvegicus [7]) | pKi (D(2) dopamine receptor [8]) | Activity (Rattus norvegicus [9]) | Ki (Dopamine receptor) | pKi (D(2) dopamine receptor [10]) | LMA (Rattus norvegicus [29]) | further results
CCCN(CCC)C1CCc2c(ccc(O)c2O)C1 (stereo not drawn) |  |  |  |  |  |  |  | LMA (Rattus norvegicus [1]): 100%; Activity (Rattus norvegicus [2]): 0%
CCCN1CCC[C@@H](c2ccccc2)C1 | 6.11 | 188% | < 6.66 | 65% | 222 nM | 5.83 |  | Activity (Rattus norvegicus [3]): 473%; LMA (Rattus norvegicus [1]): 90%; Activity (Rattus norvegicus [4]): 140%; Activity (Rattus norvegicus [5]): 20%
CN(C)CCCN1CCC[C@@H](c2cccc(C#N)c2)C1 |  |  |  |  |  | 5.63 |  | pKi (D(2) dopamine receptor [11]): < 6.66
O=S(=O)(Oc1cccc([C@@H]2CCCN(CCc3ccccc3)C2)c1)C(F)(F)F | 7.72 |  | 7.14 |  | 11 nM | 7.40 |  | Activity (Rattus norvegicus [4]): 111%; Activity (Rattus norvegicus [12]): 89%; LMA (Rattus norvegicus [13]): 20; Activity (Rattus norvegicus [14]): 66%
CCCc1cccc([C@@H]2CCCN(CCC)C2)c1 | 7.07 | 181% | < 6.66 |  | 57 nM | 6.41 |  | Activity (Rattus norvegicus [15]): 190%; Activity (Rattus norvegicus [14]): 62%; LMA (Rattus norvegicus [14]): 734
CCCN1CCC[C@@H](c2cccc(C(C)=O)c2)C1 |  |  | < 6.66 |  |  |  |  | Control (Rattus norvegicus [16]): 183%; Control (Rattus norvegicus [17]): 824%; pKi (D(2) dopamine receptor [18]): < 5.73; pKi (D(2) dopamine receptor [19]): 5.18; Control (Rattus norvegicus [20]): 44%; pKi (D(3) dopamine receptor [21]): 5.67; Activity (Rattus norvegicus [22]): 243%; Control (Rattus norvegicus [23]): 7%; Locomotor activity (% of control) (Rattus norvegicus [24]): 139%; Activity (Rattus norvegicus [25]): 73%; Activity (Rattus norvegicus [26]): 179%; Control (Rattus norvegicus [27]): 81%
CCCN1CCC[C@@H](c2cccc(C#N)c2)C1 |  |  | 6.58 |  |  |  |  | Control (Rattus norvegicus [28]): 31%; pKi (D(2) dopamine receptor [18]): 6.92; pKi (D(2) dopamine receptor [19]): 5.94; Control (Rattus norvegicus [20]): 66%; pKi (D(3) dopamine receptor [21]): 6.60; Control (Rattus norvegicus [23]): 12%; Activity (Rattus norvegicus [26]): 252%
CCCN1CCC[C@@H](c2cccc(C=O)c2)C1 | 7.08 | 127% | 6.84 | 92% | 20 nM | 5.95 | 208 | LMA (Rattus norvegicus [30]): 5
CCCN1CCC[C@@H](c2cccc(OS(=O)(=O)c3ccc(C)cc3)c2)C1 | 7.04 |  | < 6.66 |  | 162 nM | 5.88 | 152 | Activity (Rattus norvegicus [31]): 89%
CCCN1CCC[C@@H](c2cccc(SC)c2)C1 | 6.86 | 118% | < 6.66 | 92% | 49 nM | 6.07 | 313 | LMA (Rattus norvegicus [32]): 5
